We go through 2 compounds from patent US8791115B2, “Combination of triazine derivatives and insulin sensitisers” (Poxel SAS, priority 2006, dated 2014).

For the assay, the system named is diabetic GK rats. In words: Modulation of glucose levels (glycaemia and oral glucose tolerance test) in diabetic GK rats. In kind it is in vivo, rat. To be noted: for % variation vs control (glycaemia after 4 days of treatment) / Glycaemia after 4 days of treatment: PO bid for 4 days, alone or combined; for Glycaemia before treatment: baseline before treatment. As to the method: Biological Test: Modulation of Glucose Levels with the Combinations of the Invention with Insulin Sensitisers
The capacity of the compounds of the invention in combination with insulin-sensitising antidiabetic compounds to modify the blood glucose levels is evaluated in vivo in diabetic GK rats.
Alone or in combination, the antidiabetic agents are administered twice a day (bid) to the GK rats for 4 days. The oral glucose tolerance test (OGTT) is performed after the last day of treatment.
OGTT is performed in the morning after 3 hours of fasting by oral administration of a glucose charge of 2 g/kg of body mass. The blood samples are collected from the tail vein at 0; 10; 20; 30; 45; 60; 90 and 120 minutes to determine the glucose levels.
The two compounds were administered alone and in combination. The doses used for the hydrochloride salt of (+)-2-amino-3,6-dihydro-4-dimethylamino-6-methyl-1,3,5-triazine were 50 and 100 mg/kg PO twice daily for 4 days.

The mark [1] stands for this setting: GK rats, triazine salt 100 mg/kg, rosiglitazone 5 mg/kg.

Where a name gives a salt, the structure may show the parent alone.

For `CN(CCOc1ccc(CC2SC(=O)NC2=O)cc1)c1ccccn1` (stereo not shown) [Rosiglitazone, rosiglitazone, reference compound], under setting [1], the “% variation vs control (glycaemia after 4 days of treatment)” value is on record as −19.7% and the “Glycaemia after 4 days of treatment” value turned out to be 10.52 ± 0.84 mmol/L. In addition, where the note is “GK rats”, the Glycaemia before treatment amounted to 12.81 ± 0.27 mmol/L.
As to `CC1N=C(N)NC(N(C)C)=N1` (single isomer, unassigned; (+)) [(+)-2-amino-3,6-dihydro-4-dimethylamino-6-methyl-1,3,5-triazine hydrochloride], under “GK rats, 4 days, rosiglitazone 5 mg/kg, triazine salt 100 mg/kg”, the “fasted plasmatic glucose level” value is reported as “induced a decrease”. Also, the “glucose tolerance, compared with rosiglitazone” value (GK rats, OGTT, triazine salt 100 mg/kg vs rosiglitazone 5 mg/kg) is listed as “better glucose tolerance”. Under setting [1], the “% variation vs control (glycaemia after 4 days of treatment)” value is −16% and the “Glycaemia after 4 days of treatment” value came to 11.01 ± 0.37 mmol/L. The Glycaemia before treatment (GK rats) turned out to be 12.95 ± 0.41 mmol/L. Where the note is “OGTT after 4 days of treatment PO bid, triazine salt 100 mg/kg, rosiglitazone 5 mg/kg”, the “% decrease in AUC vs control” value is listed as −19.6%. Further, the “Glycaemia R under the curve (AUC)” value (OGTT, glucose 2 g/kg oral after 3 h fasting, 0-120 min, after 4 days of treatment PO bid, triazine salt 100 mg/kg, rosiglitazone 5 mg/kg) is 2688 +/− 99.
